Entries after “also recorded” stand apart in the source; their conditions may differ.
Legend:
[1] = tested on: Human umbilical vein endothelial cells; assay: Cytotoxicity by propidium iodide exclusion, HUVEC; assay type: cell-based
Staphylococcus aureus [2] = assay: Assessment of bactericidal activity (HUVEC media); assay type: cell-based
Description: FIG. 6B illustrates that neither cytotoxicity nor bactericidal activity is detected. Cultures of Staphylococcus aureus that had been incubated with the vehicle control DMSO or with ML 141 (1 hour, 37° C., 225 rpm) were serially diluted, plated onto blood agar, and incubated (18 hours, 37° C.). Colonies were enumerated and colony forming units (CFU)/ml determined. CFU/ml were not different amongst the groups (p>0.05 by t-test; n=2/treatment). […]

Staphylococcus aureus [3] = assay: Intracellular S. aureus population in HUVEC 48 hours post infection, CFU; assay type: cell-based; settings: HUVEC pretreated 18 hours (1.0 μM FIG. 7; 10 μM FIG. 11), infected 1 hour
Description: FIG. 7 is a graph illustrating suppression of intracellular population sustained over time. Human umbilical vein endothelial cells (HUVEC) were pretreated (1.0 μM, 18 hours) with the vehicle control dimethyl sulfoxide (DMSO) or ML 141 and infected with Staphylococcus aureus (1 hour). At 48 hours, intracellular bacteria were recovered, serial dilutions incubated on tryptic soy agar and colonies enumerated. Data are presented as % control, ±SEM (*less than vehicle control; p≤0.05 by t-test; n=3-5/treatment).
FIG. 11 is a graph illustrating suppression of intracellular population sustained over time. […]
Two days prior to the assay, TSB is inoculated with S. aureus (American Type Culture Collection #29213) and incubated overnight (225 rpm, 37° C.). […] To detect the level of infection using flow cytometry, cells that have been infected with fluorescently-labeled bacteria are washed extensively with PBS, lifted from 96-well plate by incubation with trypsin, washed extensively in FACS buffer (2% BSA/0.1% sodium azide/PBS), fixed (FACS buffer containing 0.74% formaldehyde), and are counted using an Accuri flow cytometer (BD, Franklin Lakes, N.J.). They are also lifted from culture dishes using cell scrapers, pelleted, fixed (1% BSA/0.74% formaldehyde/PBS), and are counted using an Accuri flow cytometer. […]

[4] = tested on: vinculin-containing adhesion complexes; assay: Vinculin-containing adhesion complexes in HUVEC; assay type: cell-based, human; settings: ML 141 10 μM, 18-20 h, vehicle control 64%
Description: FIG. 10A is an image depicting ML 141 inhibition of CDC42 limiting the formation of adhesion complexes. Human umbilical vein endothelial cells (HUVEC) were incubated (18-20 h) with the vehicle control dimethyl sulfoxide (DMSO) or with ML 141 (10 μM). Pretreated HUVEC were fixed, permeabilized, blocked, and stained with anti-vinculin followed by anti-mouse Alexa Fluor 488. Arrows indicate vinculin-containing complexes. Data are presented as the % of cells where vinculin-containing adhesion complexes were detected. 100-200 cells/treatment were evaluated from randomly selected fields (p<0.001 by χ^2). Scale bar 50 μm.

[5] = tested on: Human umbilical vein endothelial cells; assay: Transmission electron microscopy of infected HUVEC; assay type: cell-based; settings: ML 141 10 μM, S. aureus MOI 30, 2 h
Description: FIG. 9 is an image depicting ML 141 limiting damage to host cells. Human umbilical vein endothelial cells were incubated with the vehicle control polyethylene glycol (PEG) or with ML 141 (10 μM) 18-20 h prior to infection with Staphylococcus aureus at a multiplicity of infection of 30 (2 h). Following infection, extracellular bacteria were removed by incubating with lysostaphin and gentamicin (45 min), antimicrobials with limited mammalian membrane permeability. Antimicrobial-containing media was replenished and incubation extended an additional 24 h. Cells were fixed, stained, and examined by transmission electron microscopy. White arrow indicates mitochondria. Black arrow indicates filopodia. White arrowhead indicates membranous structure surrounding bacteria. Black arrowhead indicates dividing bacteria. Scale bar is 5 μm.
HUVEC were plated onto glass coverslips at […], pretreated and infected at a multiplicity of infection (MOI) of 30 for 2 h. Extracellular bacteria were removed and cells incubated for an additional 24 h in media containing antibiotics. […]

Structure (SMILES): COc1ccc(C2CC(c3ccccc3)=NN2c2ccc(S(N)(=O)=O)cc2)cc1 (stereo not shown) [ML 141, 4-[3-(4-methoxyphenyl)-5-phenyl-3,4-dihydropyrazol-2-yl]benzenesulfonamide]
- Cytotoxicity (in words) ([1]; 10 μM, 18-20 h, Tables 4 and 5): not detected
- Mean fluorescence intensity (×10^4 ± SEM), Compound (10 μM) ([1]; HUVEC pretreated 18-20 h): 2.1 ± 0.3 ×10^4
- CFU (×10^8 ± SEM), Compound (10 μM) (Staphylococcus aureus [2]; 1.2 × 10^8 CFU S. aureus, 1 h in HUVEC media, 10 μM): 8.8 ± 2.9 ×10^8 CFU
- Bactericidal activity (in words) (Staphylococcus aureus [2]; S. aureus incubated 1 h with compound, FIG. 6B, Tables 6 and 7): not detected
- viable intracellular bacteria recovered 48 hours post-infection (Staphylococcus aureus [3]): diminished the number of viable bacteria recovered; also recorded: lower
- % of cells with vinculin-containing adhesion complexes [4]: 37%
- host cell ultrastructure 24 h post-invasion (organelles) [5]: remained intact

From patent publication US10183032B2, “Methods for treating bacterial infection” (Ball State Innovation Corporation, priority 2012, dated 2019)
